This is an account of results in paper PMC11596392, “Enhanced Antibacterial, Anti-Inflammatory, and Antibiofilm Activities of Tryptophan-Substituted Peptides Derived from Cecropin A-Melittin Hybrid Peptide BP100” (Molecules, 2024).

Where no end group is shown, it is not given here.

The test system of test [1] is MDRPA (CCARM 2095) biofilm formation. In kind it is cell-based, multidrug-resistant Pseudomonas aeruginosa. The settings on record: overnight 37 °C, crystal violet staining; for MBIC50: 50% inhibition; for MBIC90: 90% inhibition. The text has this: Bacterial biofilms, comprising communities of bacterial cells encased in a matrix of polysaccharides and nucleic acids, present a significant challenge for conventional antibiotics due to the protective nature of this matrix. Biofilms can enhance bacterial resistance to antibiotics by up to 1000-fold compared to planktonic bacteria. To address this issue, there is an urgent need to discover and develop novel alternative therapeutic agents capable of effectively combating biofilm-forming bacteria. […] Our research specifically focused on evaluating the impact of BP100 and its analogs on biofilm formation and eradication using multidrug-resistant Pseudomonas aeruginosa (MDRPA), a common pathogen responsible for biofilm-mediated nosocomial infections. The adhered biomass was quantified using crystal violet staining, and the minimum biofilm inhibitory concentration (MBIC90) was determined as the lowest concentration required to inhibit 90% of biofilm growth relative to the positive control. […] Human cathelicidin LL-37 is well-documented for its potent antibiofilm properties.
The inhibitory activity of the peptides on biofilm formation was evaluated against multidrug-resistant Pseudomonas aeruginosa (MDRPA) (CCARM 2095) using a biofilm inhibition assay to determine the minimal biofilm inhibitory concentration (MBIC). Peptide solutions were serially diluted in sterile water and aliquoted (100 μL) into a 96-well Costar polypropylene plate (Corning Inc., Corning, NY, USA). An equal volume of MDRPA suspension in Mueller–Hinton Broth (MHB), adjusted to 1 × 10^6 CFU/mL, was added to each well, resulting in a final inoculum density of 5 × 10^5 CFU/mL. Following overnight incubation at 37 °C, bacterial growth was quantified by measuring the optical density (OD) at 595 nm. Planktonic cells were then discarded, and the attached biofilms were washed thrice with distilled water. Residual biofilms were stained with 0.1% crystal violet for five minutes, washed to remove non-adherent dye, and subsequently destained using 95% ethanol. The OD at 595 nm was measured again to assess the biofilm mass. Control wells contained untreated bacteria. The MBIC was defined as the lowest peptide concentration that inhibited any residual crystal violet staining or biofilm formation. All assays were conducted in triplicate to ensure reproducibility. This method allows for the quantitative assessment of the peptides’ ability to prevent biofilm formation, a critical virulence factor in many bacterial infections, particularly those caused by multidrug-resistant strains.

The next test deals with VREF (ATCC 51559). In kind it is cell-based, vancomycin-resistant Enterococcus faecium. The settings on record: broth microdilution in MHB, 37 °C, 24 h, 100% inhibition of growth. As to the method:
(§1) The antibacterial efficacy of the synthesized peptides was evaluated by determining the minimal inhibitory concentrations (MICs) against six standard bacterial strains and five drug-resistant bacterial strains using the Clinical and Laboratory Standards Institute (CLSI) microdilution method. Melittin served as the positive control.
(§2) The minimal inhibitory concentrations (MICs) of the peptides against bacterial strains were determined using a modified broth-microdilution method in accordance with the National Committee for Clinical Laboratory Standards (NCCLS) guidelines. Overnight cultures were diluted in cation-adjusted Mueller–Hinton Broth (MHB) to achieve an inoculum density of 2 × 10^6 CFU/mL. A two-fold serial dilution of the peptide solution (100 μL) was introduced into microtiter plates, followed by the addition of 100 μL of bacterial suspension. The plates were then incubated at 37 °C for 24 h to determine the MICs. Wells containing only culture media served as negative controls, while those with added bacteria functioned as positive controls. The MIC, expressed in μM, was defined as the lowest peptide concentration that prevented visible bacterial growth. This protocol was also employed to determine MICs in the presence of physiological salts (150 mM of NaCl, 4.5 mM of KCl, 6 μM of NH4Cl, 1 mM of MgCl2, 2.5 mM of CaCl2, and 4 μM of FeCl3) and 20% human serum to assess the peptides’ efficacy under conditions more closely resembling physiological environments. All experiments were conducted in triplicate and repeated three times independently to ensure reproducibility and statistical significance of the results.
Background: Dilution methods test growth across graded concentrations, often in twofold steps.

The subject of test [2] is S. epidermidis (KCTC 1917). The test is classed as cell-based, Staphylococcus epidermidis. The settings on record: broth microdilution in MHB, 37 °C, 24 h, 100% inhibition of growth. Here is the method: as §1, §2
Test [3] concerns S. typhimurium (KCTC 1926). In kind it is cell-based, Salmonella typhimurium. To be noted: broth microdilution in MHB, 37 °C, 24 h, 100% inhibition of growth. As to the method: as §1, §2

The compound `CC[C@H](C)[C@H](NC(=O)[C@H](CCCCN)NC(=O)[C@H](CCCCN)NC(=O)[C@H](Cc1c[nH]c2ccccc12)NC(=O)[C@H](CC(C)C)NC(=O)[C@H](CCCCN)NC(=O)[C@@H](N)CCCCN)C(=O)N[C@@H](CC(C)C)C(=O)N[C@@H](CCCCN)C(=O)N[C@@H](Cc1ccc(O)cc1)C(=O)N[C@@H](CC(C)C)C(N)=O` [BP1] had an MBIC50 in test [1] of 4 to 8 µM. This compound also had an MBIC90 in test [1] of 8 µM. For the same compound, the entries for the “Minimal Inhibitory Concentration (MIC)” value (in the test on VREF (ATCC 51559); in test [2]; in test [3]) were 64 µM, 8 µM and 8 µM, respectively.
Compound `CC(C)C[C@H](NC(=O)[C@H](Cc1ccc(O)cc1)NC(=O)[C@H](CCCCN)NC(=O)[C@H](CC(C)C)NC(=O)[C@H](Cc1c[nH]c2ccccc12)NC(=O)[C@H](CCCCN)NC(=O)[C@H](CCCCN)NC(=O)[C@H](Cc1ccccc1)NC(=O)[C@H](CC(C)C)NC(=O)[C@H](CCCCN)NC(=O)[C@@H](N)CCCCN)C(N)=O` [BP2] returned an MBIC50 in test [1] of 8 to 16 µM. Besides, in test [1], the MBIC90 worked out at 16 µM. Besides, the results for the “Minimal Inhibitory Concentration (MIC)” value (with VREF (ATCC 51559); in test [2]; in test [3]) were 128 µM, 2 µM and 8 µM, respectively.
In turn, `CC[C@H](C)[C@H](NC(=O)[C@H](CCCCN)NC(=O)[C@H](CCCCN)NC(=O)[C@H](Cc1ccccc1)NC(=O)[C@H](CC(C)C)NC(=O)[C@H](CCCCN)NC(=O)[C@@H](N)CCCCN)C(=O)N[C@@H](Cc1c[nH]c2ccccc12)C(=O)N[C@@H](CCCCN)C(=O)N[C@@H](Cc1ccc(O)cc1)C(=O)N[C@@H](CC(C)C)C(N)=O` [BP3] came in with an MBIC50 in test [1] of 8 to 16 µM. Also, the MBIC90 in test [1] worked out at 16 µM. In addition, the entries for the “Minimal Inhibitory Concentration (MIC)” value (with VREF (ATCC 51559); in test [2]; in test [3]) were 64 µM, 8 µM and 4 µM, respectively.
For `CC[C@H](C)[C@H](NC(=O)[C@H](CCCCN)NC(=O)[C@H](CCCCN)NC(=O)[C@H](Cc1ccccc1)NC(=O)[C@H](CC(C)C)NC(=O)[C@H](CCCCN)NC(=O)[C@@H](N)CCCCN)C(=O)N[C@@H](CC(C)C)C(=O)N[C@@H](CCCCN)C(=O)N[C@@H](Cc1c[nH]c2ccccc12)C(=O)N[C@@H](CC(C)C)C(N)=O` [BP4] the same measures were 4 to 8 µM, 8 µM, 16 µM, 8 µM and 2 µM.
In the case of KKLFKKILKWW-NH2 [BP12], the MBIC50 in test [1] lay within 4 to 8 µM. For the same compound, in test [1], the MBIC90 was determined as 8 µM. Further, the “Minimal Inhibitory Concentration (MIC)” value is 128 µM in the test with VREF (ATCC 51559), 4 µM in test [2] and 4 µM in test [3].
Turning to KKLFKKWLKYW-NH2 [BP10], the MBIC50 in test [1] was 16 to 32 µM. In addition, in test [1], the MBIC90 turned out to be 32 µM. For the same compound, the “Minimal Inhibitory Concentration (MIC)” value was determined as 128 µM in the test with VREF (ATCC 51559), 8 µM in test [2] and 8 µM in test [3].
As for KKLFKKWWKWL-NH2 [BP16], the MBIC50 in test [1] was in the range of 8 to 16 µM. The same compound registered an MBIC90 in test [1] of 16 µM. For the same compound, the “Minimal Inhibitory Concentration (MIC)” value was 64 µM in the test with VREF (ATCC 51559), 16 µM in test [2] and 16 µM in test [3].
Take KKLFKKWWKYL-NH2 [BP9]: the MBIC50 in test [1] lay within 8 to 16 µM. The MBIC90 in test [1] amounted to 16 µM. For the same compound, the results for the “Minimal Inhibitory Concentration (MIC)” value (in the test on VREF (ATCC 51559); in test [2]; in test [3]) were 64 µM, 4 µM and 4 µM, respectively.
For the compound KKLWKKIWKYL-NH2 [BP7], in test [1], the MBIC50 was in the range of 4 to 8 µM. In test [1], this compound returned an MBIC90 of 8 µM. The “Minimal Inhibitory Concentration (MIC)” value with VREF (ATCC 51559) amounted to 32 µM; in test [2] it was 2 µM; in test [3], 2 µM.
